Measured values taken from ChEMBL document CHEMBL3217615, “Novel 3,5-bis(arylidiene)-4-piperidone based monocarbonyl analogs of curcumin: anticancer activity evaluation and mode of action study” (2014).

Experiments:
Type in all cases: functional
[1] = Growth inhibition of human OVCAR5 cells assessed as cell growth at 10^-6 M after 48 hrs by sulforhodamine B assay; conditions: OVCAR-5, 48 h, read-out: Activity
HOP-62 = assay: Growth inhibition of human HOP62 cells assessed as cell growth at 10^-6 M after 48 hrs by sulforhodamine B assay; conditions: HOP-62, 48 h, read-out: Activity
ACHN = assay: Growth inhibition of human ACHN cells assessed as cell growth at 10^-7 M after 48 hrs by sulforhodamine B assay; conditions: read-out: Activity
[2] = Growth inhibition of human OVCAR5 cells assessed as cell growth at 10^-7 M after 48 hrs by sulforhodamine B assay; conditions: OVCAR-5, 48 h, read-out: Activity
U-251 [3] = assay: Growth inhibition of human U251 cells assessed as cell growth at 10^-5 M after 48 hrs by sulforhodamine B assay; conditions: U-251, 48 h, read-out: Activity
[4] = Growth inhibition of human SF295 cells assessed as cell growth at 10^-5 M after 48 hrs by sulforhodamine B assay; conditions: SF-295, 48 h, read-out: Activity
[5] = Growth inhibition of human BT549 cells assessed as cell growth at 10^-6 M after 48 hrs by sulforhodamine B assay; conditions: BT-549, 48 h, read-out: Activity
[6] = Growth inhibition of human RXF393 cells assessed as cell growth at 10^-6 M after 48 hrs by sulforhodamine B assay; conditions: RXF 393, 48 h, read-out: Activity
[7] = Growth inhibition of human OVCAR8 cells assessed as cell growth at 10^-6 M after 48 hrs by sulforhodamine B assay; conditions: OVCAR-8, 48 h, read-out: Activity
SK-MEL-28 = assay: Growth inhibition of human SK-MEL-28 cells assessed as cell growth at 10^-4 M after 48 hrs by sulforhodamine B assay; conditions: SK-MEL-28, 48 h, read-out: Activity
M14 = assay: Growth inhibition of human M14 cells assessed as cell growth at 10^-4 M after 48 hrs by sulforhodamine B assay; conditions: M14, 48 h, read-out: Activity
U-251 [8] = assay: Growth inhibition of human U251 cells assessed as cell growth at 10^-4 M after 48 hrs by sulforhodamine B assay; conditions: U-251, 48 h, read-out: Activity
SNB-19 = assay: Growth inhibition of human SNB19 cells assessed as cell growth at 10^-4 M after 48 hrs by sulforhodamine B assay; conditions: SNB-19, 48 h, read-out: Activity
COLO 205 = assay: Growth inhibition of human COLO205 cells assessed as cell growth at 10^-4 M after 48 hrs by sulforhodamine B assay; conditions: COLO 205, 48 h, read-out: Activity
NCI-H460 [9] = assay: Growth inhibition of human NCI-H460 cells assessed as cell growth at 10^-4 M after 48 hrs by sulforhodamine B assay; conditions: NCI-H460, 48 h, read-out: Activity
[10] = Growth inhibition of human UACC257 cells assessed as cell growth at 10^-8 M after 48 hrs by sulforhodamine B assay; conditions: UACC-257, 48 h
MDA-MB-435 = assay: Growth inhibition of human MDA-MB-435 cells assessed as cell growth at 10^-8 M after 48 hrs by sulforhodamine B assay; conditions: MDA-MB-435, 48 h
NCI-H226 = assay: Growth inhibition of human NCI-H226 cells assessed as cell growth at 10^-8 M after 48 hrs by sulforhodamine B assay; conditions: NCI-H226, 48 h
DU-145 [11] = assay: Growth inhibition of human DU145 cells after 48 hrs by sulforhodamine B assay; conditions: DU-145, 48 h
[12] = Growth inhibition of human RXF393 cells after 48 hrs by sulforhodamine B assay; conditions: RXF 393, 48 h
SK-OV-3 = assay: Growth inhibition of human SKOV3 cells after 48 hrs by sulforhodamine B assay; conditions: SK-OV-3, 48 h
[13] = Growth inhibition of human OVCAR8 cells after 48 hrs by sulforhodamine B assay; conditions: OVCAR-8, 48 h
[14] = Growth inhibition of human OVCAR5 cells after 48 hrs by sulforhodamine B assay; conditions: OVCAR-5, 48 h
KM12 = assay: Growth inhibition of human KM12 cells after 48 hrs by sulforhodamine B assay; conditions: KM12, 48 h
NCI-H460 [15] = assay: Growth inhibition of human NCI-H460 cells after 48 hrs by sulforhodamine B assay; conditions: NCI-H460, 48 h
MDA-MB-231 = assay: Growth inhibition of human MDA-MB-231 cells assessed as cell growth at 10^-4 M after 48 hrs by sulforhodamine B assay; conditions: MDA-MB-231, 48 h, read-out: Activity
DU-145 [16] = assay: Growth inhibition of human DU145 cells assessed as cell growth at 10^-4 M after 48 hrs by sulforhodamine B assay; conditions: DU-145, 48 h, read-out: Activity
[17] = Growth inhibition of human UACC62 cells assessed as cell growth at 10^-7 M after 48 hrs by sulforhodamine B assay; conditions: UACC-62, 48 h, read-out: Activity
MCF7 = assay: Growth inhibition of human MCF7 cells assessed as cell growth at 10^-8 M after 48 hrs by sulforhodamine B assay; conditions: MCF7, 48 h
[18] = Growth inhibition of human UO31 cells assessed as cell growth at 10^-8 M after 48 hrs by sulforhodamine B assay; conditions: UO-31, 48 h
[19] = Growth inhibition of human RXF393 cells assessed as cell growth at 10^-8 M after 48 hrs by sulforhodamine B assay; conditions: RXF 393, 48 h
IGROV-1 = assay: Growth inhibition of human IGROV1 cells assessed as cell growth at 10^-8 M after 48 hrs by sulforhodamine B assay; conditions: IGROV-1, 48 h
[20] = read-out: LC50 (the source's name)

Cc1ccc(S(=O)(=O)N2C/C(=C\c3cc(F)cc(F)c3)C(=O)/C(=C/c3cc(F)cc(F)c3)C2)cc1
growth at 1 µM [1]: 51% | growth at 1 µM (HOP-62): 93% | growth at 0.1 µM (ACHN): 99% | growth at 0.1 µM [2]: 93% | growth at 10 µM (U-251 [3]): -97.9% | growth at 10 µM [4]: -44% | growth at 1 µM [5]: -4% | growth at 1 µM [6]: 44% | growth at 1 µM [7]: 15% | growth at 100 µM (SK-MEL-28): -98% | growth at 100 µM (M14): -86% | growth at 100 µM (U-251 [8]): -96% | growth at 100 µM (SNB-19): -100% | growth at 100 µM (COLO 205): -95% | growth at 100 µM (NCI-H460 [9]): -72% | GI50 [10]: 933 nM | LC50 [10]: 8510 nM | growth at 0.01 µM ([10]; read-out: Activity): 93% | TGI ([10]; read-out: pTGI (converted)): 2880 nM | GI50 (MDA-MB-435): 240 nM | LC50 (MDA-MB-435): 3630 nM | growth at 0.01 µM (MDA-MB-435; read-out: Activity): 96% | TGI (MDA-MB-435; read-out: pTGI (converted)): 692 nM | GI50 (NCI-H226): 8710 nM | LC50 (NCI-H226): > 100000 nM | growth at 0.01 µM (NCI-H226; read-out: Activity): 97% | TGI (NCI-H226; read-out: pTGI (converted)): 39800 nM | GI50 (DU-145 [11]): 1240 nM | TGI (DU-145 [11]): 3080 nM | CC50 (DU-145 [11]; [20]): 7620 nM | GI50 [12]: 723 nM | TGI [12]: 2140 nM | CC50 [12, 20]: 5130 nM | GI50 (SK-OV-3): 1840 nM | TGI (SK-OV-3): 5620 nM | CC50 (SK-OV-3; [20]): 37200 nM | GI50 [13]: 301 nM | TGI [13]: 1770 nM | CC50 [13, 20]: 16300 nM | GI50 [14]: 1020 nM | TGI [14]: 2750 nM | CC50 [14, 20]: 7400 nM | GI50 (KM12): 327 nM | TGI (KM12): 1000 nM | CC50 (KM12; [20]): 4040 nM | GI50 (NCI-H460 [15]): 828 nM | TGI (NCI-H460 [15]): 2870 nM | CC50 (NCI-H460 [15]; [20]): 9220 nM | growth at 100 µM (MDA-MB-231): -82% | growth at 100 µM (DU-145 [16]): -87% | growth at 0.1 µM [17]: 93% | GI50 (MCF7): 174 nM | LC50 (MCF7): 6920 nM | growth at 0.01 µM (MCF7; read-out: Activity): 89% | TGI (MCF7; read-out: pTGI (converted)): 1450 nM | GI50 [18]: 1100 nM | LC50 [18]: 5130 nM | growth at 0.01 µM ([18]; read-out: Activity): 91% | TGI ([18]; read-out: pTGI (converted)): 2340 nM | GI50 [19]: 724 nM | growth at 0.01 µM ([19]; read-out: Activity): 96% | CC50 ([19]; read-out: pLC50 (the source's name) (converted)): 5130 nM | TGI ([19]; read-out: pTGI (converted)): 2140 nM | GI50 (IGROV-1): 437 nM | LC50 (IGROV-1): 5130 nM | growth at 0.01 µM (IGROV-1; read-out: Activity): 106% | TGI (IGROV-1; read-out: pTGI (converted)): 1550 nM
